Laboratory results reported in publication PMC4594013 (Frontiers in Pharmacology, 2015).
Entries after “also recorded” stand apart in the source; their conditions may differ. Counter-ions that a name gives are not always drawn.

Columns and labels:
[1] = biological target: T1, OAT2-tv1 (Homo sapiens, UniProt Q9Y694); assay: Inhibition of [3H]penciclovir uptake into CHO-OAT2-tv1 cells; format: cell-based; conditions: CHO-OAT2-tv1 cells; test compound 1 mM; [3H]penciclovir ∼30 nM; 5 min
T1 sequence (Q9Y694 1-546 isoform Q9Y694-2): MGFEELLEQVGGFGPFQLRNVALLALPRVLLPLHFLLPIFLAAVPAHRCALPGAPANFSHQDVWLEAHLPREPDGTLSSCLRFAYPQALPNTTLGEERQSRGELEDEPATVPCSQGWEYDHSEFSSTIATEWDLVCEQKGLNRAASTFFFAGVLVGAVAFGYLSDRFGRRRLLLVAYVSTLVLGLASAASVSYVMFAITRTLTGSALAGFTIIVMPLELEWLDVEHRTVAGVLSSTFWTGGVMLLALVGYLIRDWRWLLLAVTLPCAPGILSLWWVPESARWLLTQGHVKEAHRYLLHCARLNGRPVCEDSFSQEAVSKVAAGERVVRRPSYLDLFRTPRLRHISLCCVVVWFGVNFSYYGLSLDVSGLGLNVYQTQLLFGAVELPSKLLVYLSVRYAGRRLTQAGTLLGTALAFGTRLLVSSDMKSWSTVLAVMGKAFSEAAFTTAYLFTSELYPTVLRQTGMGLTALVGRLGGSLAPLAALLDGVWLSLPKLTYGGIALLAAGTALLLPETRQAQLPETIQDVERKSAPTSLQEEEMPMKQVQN
Protocol: (§1) All experiments examining cellular radiolabeled compound uptake were conducted using cells grown to confluence in 24-well flat bottom plates. The transport solution consisted of WB (room temperature) containing radiolabeled compound and the uptake period for all experiments was at an initial rate time point of 5 min. [^3H]Penciclovir served as the probe OAT2 substrate. We also examined the uptake of [^3H]para-aminohippurate, [^3H]estrone-3-sulfate, [^14C]glutarate, [^14C]succinate, [^3H]paclitaxel, and [^3H]dehydroepiandrosterone sulfate by OAT2 since published studies indicate that they are substrates of the transport protein ([Sun et al., 2001]; [Kobayashi et al., 2005a]). […] For all cellular uptake experiments, the medium was aspirated and the cells were rinsed once with WB (0.3 ml). Following the uptake period, cells were washed three times with ice-cold WB (0.5 ml each wash). After aspirating the final wash the cells were lysed in 0.5 N NaOH/1% SDS (0.4 ml) for ∼30 min on an orbital shaker. 1 N HCl (0.2 ml) was then added to neutralize the NaOH, and the cell lysates (0.5 ml) were transferred to scintillation vials containing liquid scintillation cocktail (CytoScint ES, MP Biomedicals). Cellular radioactivity content was determined with a Beckman LS6500 liquid scintillation counter. Protein content was determined using the bicinchoninic acid method. See the Figure and Table Legends for additional details describing the experimental conditions used.
The concentration of each Kreb’s cycle intermediate was 1 mM. Uptake was conducted for 5 min.

[2] = biological target: T1, OAT2-tv1; parameters: The open reading frame of the human ortholog of OAT2 transcript variant 1 (OAT2-tv1) containing 546 amino acids was amplified from human kidney cDNA; expressed in transfected cells; host or cells: CHO Flp-In (A1); CHO, HEK and MDCK Flp-In (A2); conditions: ref Babelova et al., 2015; cited from earlier work
[3] = test system: OAT2 (sequence not given); conditions: variant unclear; ref Sun et al., 2001; cited from earlier work
[4] = test system: CHO parental cells; assay: Cellular accumulation of radiolabeled compounds in CHO parental cells; format: cell-based, Chinese hamster; conditions: [3H]dehydroepiandrosterone sulfate 12 nM, [3H]paclitaxel 22 nM, n = 3
[5] = biological target: T1, OAT2-tv1; assay: Cellular uptake of radiolabeled compounds by CHO, HEK or MDCK cells stably expressing OAT2-tv1
Protocol: as §1
FIGURE 2 Cellular accumulation of [^3H]penciclovir (A), [^3H]para-aminohippurate (B), [^3H]estrone-3-sulfate (C), or [^14C]glutarate (D) by parental CHO, HEK, or MDCK cells, or CHO, HEK, or MDCK cells stably expressing either OAT2-tv1 or OAT2-tv2. The concentration of [^3H]penciclovir in the transport solution was 0.1 μM for CHO and MDCK cell experiments, and 0.5 μM for HEK cell experiments. The concentrations of [^3H]para-aminohippurate, [^3H]estrone-3-sulfate and [^14C]glutarate were 8 nM, 10 nM, and 18 μM, respectively. Uptake was conducted for 5 min at room temperature.
FIGURE 4 Cellular accumulation of [^14C]succinate (18.5 μM) by CHO parental cells, CHO-OAT2-tv1 cells or CHO cells stably expressing the Na-dicarboxylate cotransporter 3 (NaDC3). Uptake was conducted for 5 min. Values are the mean ± standard error of the mean of four experiments for CHO parental and CHO-OAT2-tv1 cells. A single uptake experiment was performed with CHO-NaDC3 cells.

[6] = biological target: T2, OAT2-tv2 (Homo sapiens, UniProt Q9Y694); parameters: method as in Kobayashi et al., 2005a; conditions: OAT2-tv2 in Xenopus oocytes pre-loaded with 5 mM compound; ref Kobayashi et al., 2005a; cited from earlier work
T2 sequence (Q9Y694 1-548): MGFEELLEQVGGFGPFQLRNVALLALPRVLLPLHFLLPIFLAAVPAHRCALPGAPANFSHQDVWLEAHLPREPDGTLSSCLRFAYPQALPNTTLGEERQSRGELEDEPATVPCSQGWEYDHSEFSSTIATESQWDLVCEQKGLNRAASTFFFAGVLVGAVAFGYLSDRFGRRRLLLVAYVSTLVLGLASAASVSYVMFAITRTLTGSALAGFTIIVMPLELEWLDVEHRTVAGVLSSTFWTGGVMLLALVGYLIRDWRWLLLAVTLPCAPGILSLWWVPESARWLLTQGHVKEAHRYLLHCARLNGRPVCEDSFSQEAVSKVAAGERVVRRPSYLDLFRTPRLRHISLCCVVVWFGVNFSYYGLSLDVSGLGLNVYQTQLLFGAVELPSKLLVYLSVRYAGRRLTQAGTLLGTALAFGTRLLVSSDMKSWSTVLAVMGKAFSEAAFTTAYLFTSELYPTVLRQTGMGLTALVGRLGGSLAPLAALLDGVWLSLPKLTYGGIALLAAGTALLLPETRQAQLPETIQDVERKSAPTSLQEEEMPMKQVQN

[7] = biological target: Na-dicarboxylate cotransporter 3 (NaDC3) (Homo sapiens, UniProt Q8WWT9); conditions: CHO-NaDC3 cells; [14C]succinate 18.5 μM; 5 min; single experiment (n = 1)
Protocol: as §1, with “See the Figure and Table Legends for additional details describing the experimental conditions used.” left out

[8] = test system: OAT2-tv3; parameters: method as in Sato et al., 2010; conditions: OAT2-tv3 in HEK cells pre-loaded with succinate (100 mM); ref Sato et al., 2010; cited from earlier work

Na-dicarboxylate cotransporter 3 (NaDC3), sequence (Q8WWT9 whole entry, species assumed): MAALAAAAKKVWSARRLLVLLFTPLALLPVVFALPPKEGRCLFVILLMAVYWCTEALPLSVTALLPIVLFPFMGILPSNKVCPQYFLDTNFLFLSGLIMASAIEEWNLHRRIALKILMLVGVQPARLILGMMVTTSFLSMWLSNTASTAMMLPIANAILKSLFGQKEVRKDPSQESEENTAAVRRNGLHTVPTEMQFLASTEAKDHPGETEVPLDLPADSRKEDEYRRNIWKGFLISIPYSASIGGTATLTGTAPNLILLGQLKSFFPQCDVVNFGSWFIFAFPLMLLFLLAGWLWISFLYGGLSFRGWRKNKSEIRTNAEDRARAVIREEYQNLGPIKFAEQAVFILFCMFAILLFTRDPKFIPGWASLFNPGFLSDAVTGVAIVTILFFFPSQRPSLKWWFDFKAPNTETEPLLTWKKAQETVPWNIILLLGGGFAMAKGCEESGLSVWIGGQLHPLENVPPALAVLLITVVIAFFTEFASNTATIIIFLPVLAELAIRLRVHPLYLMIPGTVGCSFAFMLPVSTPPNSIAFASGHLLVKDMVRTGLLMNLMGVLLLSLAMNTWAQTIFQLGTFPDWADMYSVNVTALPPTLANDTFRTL

Structure (SMILES): O=C(O)/C=C(/CC(=O)O)C(=O)O [cis-aconitate]
- cis-inhibition of penciclovir uptake [1]: none of the Kreb’s cycle intermediates tested, including succinate and fumarate, cis-inhibited penciclovir uptake
- cis-inhibition of OAT2-tv1-mediated cGMP transport [2]: did not observe cis-inhibition

Structure (SMILES): O=C(O)CC(O)(CC(=O)O)C(=O)O [citrate]
- cis-inhibition of penciclovir uptake [1]: none of the Kreb’s cycle intermediates tested, including succinate and fumarate, cis-inhibited penciclovir uptake
- cis-inhibition of OAT2-tv1-mediated cGMP transport [2]: did not observe cis-inhibition

Structure (SMILES): C[C@]12CC[C@H](OS(=O)(=O)O)CC1=CC[C@@H]1[C@@H]2CC[C@]2(C)C(=O)CC[C@@H]12 [dehydroepiandrosterone sulfate]
- transport by OAT2 [3]: did not observe transport
- cellular accumulation [4]: 10.3 ± 1.1 fmoles ⋅ mg protein^-1 ⋅ min^-1
- cellular accumulation ([5]; CHO-OAT2-tv1 cells, [3H]dehydroepiandrosterone sulfate 12 nM, [3H]paclitaxel 22 nM, n = 3): 11.0 ± 0.54 fmoles ⋅ mg protein^-1 ⋅ min^-1
- mediated transport by OAT2-tv1 ([5]; expressed in CHO cells): unable to show mediated transport

Structure (SMILES): O=C(O)CCC(=O)O [succinate]
- cis-inhibition of penciclovir uptake [1]: none of the Kreb’s cycle intermediates tested, including succinate and fumarate, cis-inhibited penciclovir uptake
- stimulation of estrone-3-sulfate uptake by pre-loading [6]: 2.1 fold
- uptake of [14C]succinate, fold higher than control [7]: ~30 fold
- uptake of [14C]succinate compared to parental CHO cells ([5]; CHO-OAT2-tv1 cells, [14C]succinate 18.5 μM, 5 min): not different than uptake into the parental CHO cells; also recorded: no significant difference; also recorded: not transported
- stimulation of urate uptake by pre-loading [8]: failed to observe stimulation
